Source: ChEMBL document CHEMBL5465560, “Selectivity Literature for EUbOPEN Chemogenomic Library” (2024)

Assays:
[1] = target: Dual specificity mitogen-activated protein kinase kinase 1 (Homo sapiens, UniProt Q02750); settings: at 10 µM
[2] = target: Cyclin-dependent kinase 16 (Homo sapiens) (UniProt Q00536); experiment: Selectivity interaction (Ambit KINOMEscan and KiNATiv profiling in Jurkat cells) EUB0000090b CDK16; type: cell-based; settings: at 1 µM
[3] = target: Mitogen-activated protein kinase kinase kinase 9 (Homo sapiens) (UniProt P80192); experiment: Selectivity interaction (Kinase panel (literature)) EUB0001199aCl MAP3K9; settings: at 1 µM
[4] = target: Ribosomal protein S6 kinase alpha-6 (Homo sapiens, UniProt Q9UK32); experiment: Selectivity interaction (KinomeScan (DiscoverX)) EUB0000655a RPS6KA6; settings: at 10 µM
[5] = target: Platelet-derived growth factor receptor alpha (Homo sapiens, UniProt P16234); experiment: Selectivity interaction (KinomeScan (DiscoverX)) EUB0001079a PDGFRA; settings: at 1 µM
[6] = target: Serine/threonine-protein kinase 32B (Homo sapiens) (UniProt Q9NY57); experiment: Selectivity interaction (KinomeScan (DiscoverX)) EUB0001079a STK32B; settings: at 1 µM
[7] = target: Casein kinase I isoform gamma-3 (Homo sapiens) (UniProt Q9Y6M4); experiment: Selectivity interaction (KinomeScan (DiscoverX)) EUB0000618a CSNK1G3; settings: at 10 µM
Casein kinase I isoform gamma-3 (Homo sapiens), sequence (Q9Y6M4 whole entry, looked up, canonical isoform): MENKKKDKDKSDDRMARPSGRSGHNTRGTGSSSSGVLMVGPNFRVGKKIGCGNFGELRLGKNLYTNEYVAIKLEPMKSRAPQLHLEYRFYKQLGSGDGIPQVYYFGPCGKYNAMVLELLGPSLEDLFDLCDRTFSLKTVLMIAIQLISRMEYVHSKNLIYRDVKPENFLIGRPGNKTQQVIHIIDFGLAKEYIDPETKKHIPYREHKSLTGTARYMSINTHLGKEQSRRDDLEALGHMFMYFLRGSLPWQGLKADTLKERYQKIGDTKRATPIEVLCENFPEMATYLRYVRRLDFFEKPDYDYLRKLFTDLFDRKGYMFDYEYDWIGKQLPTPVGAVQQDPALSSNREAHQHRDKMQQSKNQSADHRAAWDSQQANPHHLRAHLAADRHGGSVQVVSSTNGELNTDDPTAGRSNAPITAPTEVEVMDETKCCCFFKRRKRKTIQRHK

[8] = target: Calcium/calmodulin-dependent protein kinase kinase 1 (Homo sapiens) (UniProt Q8N5S9); experiment: Selectivity interaction (KinomeScan (DiscoverX)) EUB0000618a CAMKK1; settings: at 10 µM
Calcium/calmodulin-dependent protein kinase kinase 1 (Homo sapiens), sequence (Q8N5S9 whole entry, looked up): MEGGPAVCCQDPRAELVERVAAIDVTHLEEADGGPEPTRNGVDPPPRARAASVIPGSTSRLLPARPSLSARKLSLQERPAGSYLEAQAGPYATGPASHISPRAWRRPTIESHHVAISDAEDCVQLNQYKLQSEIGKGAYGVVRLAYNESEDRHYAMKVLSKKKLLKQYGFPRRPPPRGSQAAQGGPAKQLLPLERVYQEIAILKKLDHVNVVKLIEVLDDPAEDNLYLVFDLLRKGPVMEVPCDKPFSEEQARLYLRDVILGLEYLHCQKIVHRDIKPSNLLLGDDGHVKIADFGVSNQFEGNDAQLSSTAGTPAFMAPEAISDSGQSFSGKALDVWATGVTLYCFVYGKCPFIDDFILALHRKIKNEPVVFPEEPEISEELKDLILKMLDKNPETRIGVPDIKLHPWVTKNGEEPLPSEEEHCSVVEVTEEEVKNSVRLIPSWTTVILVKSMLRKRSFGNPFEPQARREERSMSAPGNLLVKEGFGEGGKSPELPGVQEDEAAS

[9] = target: Serine/threonine-protein kinase pim-2 (Homo sapiens, UniProt Q9P1W9); experiment: Selectivity interaction (SelectScreen profiling (Invitrogen)) EUB0000607a PIM2; settings: at 2 µM
[10] = target: Casein kinase I isoform epsilon (Homo sapiens, UniProt P49674); experiment: Selectivity interaction (KinomeScan (DiscoverX)) EUB0000607a CSNK1E; settings: at 10 µM
[11] = system: Epidermal growth factor receptor (Homo sapiens), P00533 [UNDEFINED MUTATION]; experiment: Selectivity interaction (KinomeScan (DiscoverX)) EUB0000045b EGFR; settings: at 10 µM
Epidermal growth factor receptor (Homo sapiens), P00533 [UNDEFINED MUTATION], sequence (P00533 whole entry, looked up, change not shown): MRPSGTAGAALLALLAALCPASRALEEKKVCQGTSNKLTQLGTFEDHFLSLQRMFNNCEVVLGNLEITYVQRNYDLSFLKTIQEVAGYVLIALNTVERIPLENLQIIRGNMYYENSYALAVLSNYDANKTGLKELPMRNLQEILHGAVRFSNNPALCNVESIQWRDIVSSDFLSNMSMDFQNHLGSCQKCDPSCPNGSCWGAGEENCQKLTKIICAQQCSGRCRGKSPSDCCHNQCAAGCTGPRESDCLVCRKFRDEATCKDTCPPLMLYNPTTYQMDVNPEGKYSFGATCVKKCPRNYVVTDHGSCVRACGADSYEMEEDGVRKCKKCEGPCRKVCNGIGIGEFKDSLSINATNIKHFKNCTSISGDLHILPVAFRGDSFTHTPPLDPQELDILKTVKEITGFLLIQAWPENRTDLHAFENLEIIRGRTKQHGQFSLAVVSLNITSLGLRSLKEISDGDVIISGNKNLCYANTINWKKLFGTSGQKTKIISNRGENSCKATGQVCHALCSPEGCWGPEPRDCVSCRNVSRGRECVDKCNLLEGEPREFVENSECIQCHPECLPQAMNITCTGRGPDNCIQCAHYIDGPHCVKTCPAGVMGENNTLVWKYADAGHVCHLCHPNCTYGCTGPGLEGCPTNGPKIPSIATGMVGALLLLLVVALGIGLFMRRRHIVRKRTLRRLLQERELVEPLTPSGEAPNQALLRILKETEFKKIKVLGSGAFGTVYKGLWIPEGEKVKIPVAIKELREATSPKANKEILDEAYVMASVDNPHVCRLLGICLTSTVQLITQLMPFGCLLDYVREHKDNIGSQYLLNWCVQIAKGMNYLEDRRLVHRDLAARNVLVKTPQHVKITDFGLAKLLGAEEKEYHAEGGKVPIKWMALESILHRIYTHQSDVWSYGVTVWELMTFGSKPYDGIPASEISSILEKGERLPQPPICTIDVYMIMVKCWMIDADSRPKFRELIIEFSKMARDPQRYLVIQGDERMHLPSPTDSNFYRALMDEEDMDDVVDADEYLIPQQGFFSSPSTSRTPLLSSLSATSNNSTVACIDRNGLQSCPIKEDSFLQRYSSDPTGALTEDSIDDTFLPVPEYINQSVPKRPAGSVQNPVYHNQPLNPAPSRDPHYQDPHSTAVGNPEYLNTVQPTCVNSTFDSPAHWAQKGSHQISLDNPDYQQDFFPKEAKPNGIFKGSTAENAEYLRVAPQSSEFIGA

[12] = target: Mitogen-activated protein kinase 14 (Homo sapiens, UniProt Q16539); experiment: Selectivity interaction (Kinase panel (KiNativ target engagement assay in Jurkat cells)) EUB0001635a MAPK14; type: cell-based; settings: Selectivity number of off-targets 0.0, Selectivity number of targets 233.0, Source Knowledge https://www.sciencedirect.com/science/article/pii/S2451945619300674?via%3Dihub, at 1 µM
[13] = target: Casein kinase II subunit alpha' (Homo sapiens) (UniProt P19784); experiment: Selectivity interaction (Kinase panel (KiNativ target engagement assay in Jurkat cells)) EUB0001635a CSNK2A2; type: cell-based; settings: Selectivity number of off-targets 0.0, Selectivity number of targets 233.0, Source Knowledge https://www.sciencedirect.com/science/article/pii/S2451945619300674?via%3Dihub, at 1 µM
[14] = target: Serine/threonine-protein kinase 35 (Homo sapiens) (UniProt Q8TDR2); settings: at 10 µM
[15] = target: Cyclin-dependent kinase 18 (Homo sapiens) (UniProt Q07002); experiment: Selectivity interaction (ActivX KiNativ screen (kinase selectivity in THP-1 cell lysates)) EUB0000639a CDK18; type: subcellular; settings: lysate
Cyclin-dependent kinase 18 (Homo sapiens), sequence (Q07002 whole entry): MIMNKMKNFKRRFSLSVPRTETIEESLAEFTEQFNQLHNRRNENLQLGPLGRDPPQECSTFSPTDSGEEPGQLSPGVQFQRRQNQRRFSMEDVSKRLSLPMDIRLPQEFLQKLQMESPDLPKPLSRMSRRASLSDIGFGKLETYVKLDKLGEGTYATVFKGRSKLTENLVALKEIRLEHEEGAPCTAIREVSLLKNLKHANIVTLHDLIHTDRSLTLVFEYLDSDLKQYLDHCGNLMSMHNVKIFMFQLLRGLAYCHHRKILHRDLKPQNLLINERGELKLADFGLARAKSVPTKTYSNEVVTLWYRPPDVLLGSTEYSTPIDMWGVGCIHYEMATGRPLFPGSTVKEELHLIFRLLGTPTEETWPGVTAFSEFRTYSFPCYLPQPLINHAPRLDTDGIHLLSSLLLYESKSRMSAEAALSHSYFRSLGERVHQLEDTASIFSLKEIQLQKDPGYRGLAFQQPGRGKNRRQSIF

[16] = target: Serine/threonine-protein kinase tousled-like 2 (Homo sapiens) (UniProt Q86UE8); experiment: Selectivity interaction (ActivX KiNativ screen (kinase selectivity in THP-1 cell lysates)) EUB0000639a TLK2; type: subcellular; settings: lysate, at 1 µM
Serine/threonine-protein kinase tousled-like 2 (Homo sapiens), sequence (Q86UE8 whole entry, looked up): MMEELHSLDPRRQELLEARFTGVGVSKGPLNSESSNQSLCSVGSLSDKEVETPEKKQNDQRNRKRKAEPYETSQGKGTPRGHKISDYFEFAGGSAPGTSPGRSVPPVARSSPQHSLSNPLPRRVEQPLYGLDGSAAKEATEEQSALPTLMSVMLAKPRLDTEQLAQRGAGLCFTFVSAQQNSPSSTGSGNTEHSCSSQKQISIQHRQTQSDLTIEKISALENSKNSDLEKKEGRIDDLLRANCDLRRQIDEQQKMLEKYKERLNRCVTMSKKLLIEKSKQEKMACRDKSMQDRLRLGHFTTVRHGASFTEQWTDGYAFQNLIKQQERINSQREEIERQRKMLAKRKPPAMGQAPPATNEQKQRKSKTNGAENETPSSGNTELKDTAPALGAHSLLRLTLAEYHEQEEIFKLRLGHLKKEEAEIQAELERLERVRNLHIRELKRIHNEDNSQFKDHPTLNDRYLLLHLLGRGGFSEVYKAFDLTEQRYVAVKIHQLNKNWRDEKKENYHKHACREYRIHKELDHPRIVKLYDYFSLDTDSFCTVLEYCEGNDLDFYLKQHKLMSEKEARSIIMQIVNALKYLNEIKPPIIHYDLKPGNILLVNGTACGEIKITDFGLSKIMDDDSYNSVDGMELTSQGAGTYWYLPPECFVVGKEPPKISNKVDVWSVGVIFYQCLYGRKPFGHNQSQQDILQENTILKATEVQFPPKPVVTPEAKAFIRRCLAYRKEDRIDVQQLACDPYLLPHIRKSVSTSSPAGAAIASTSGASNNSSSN

[17] = target: T1, Ephrin type-B receptor 3 (Homo sapiens) (UniProt P54753); experiment: Selectivity interaction (Kinase panel (Invitrogen)) EUB0000639a EPHB3; settings: at 200 nM
T1 sequence (whole entry): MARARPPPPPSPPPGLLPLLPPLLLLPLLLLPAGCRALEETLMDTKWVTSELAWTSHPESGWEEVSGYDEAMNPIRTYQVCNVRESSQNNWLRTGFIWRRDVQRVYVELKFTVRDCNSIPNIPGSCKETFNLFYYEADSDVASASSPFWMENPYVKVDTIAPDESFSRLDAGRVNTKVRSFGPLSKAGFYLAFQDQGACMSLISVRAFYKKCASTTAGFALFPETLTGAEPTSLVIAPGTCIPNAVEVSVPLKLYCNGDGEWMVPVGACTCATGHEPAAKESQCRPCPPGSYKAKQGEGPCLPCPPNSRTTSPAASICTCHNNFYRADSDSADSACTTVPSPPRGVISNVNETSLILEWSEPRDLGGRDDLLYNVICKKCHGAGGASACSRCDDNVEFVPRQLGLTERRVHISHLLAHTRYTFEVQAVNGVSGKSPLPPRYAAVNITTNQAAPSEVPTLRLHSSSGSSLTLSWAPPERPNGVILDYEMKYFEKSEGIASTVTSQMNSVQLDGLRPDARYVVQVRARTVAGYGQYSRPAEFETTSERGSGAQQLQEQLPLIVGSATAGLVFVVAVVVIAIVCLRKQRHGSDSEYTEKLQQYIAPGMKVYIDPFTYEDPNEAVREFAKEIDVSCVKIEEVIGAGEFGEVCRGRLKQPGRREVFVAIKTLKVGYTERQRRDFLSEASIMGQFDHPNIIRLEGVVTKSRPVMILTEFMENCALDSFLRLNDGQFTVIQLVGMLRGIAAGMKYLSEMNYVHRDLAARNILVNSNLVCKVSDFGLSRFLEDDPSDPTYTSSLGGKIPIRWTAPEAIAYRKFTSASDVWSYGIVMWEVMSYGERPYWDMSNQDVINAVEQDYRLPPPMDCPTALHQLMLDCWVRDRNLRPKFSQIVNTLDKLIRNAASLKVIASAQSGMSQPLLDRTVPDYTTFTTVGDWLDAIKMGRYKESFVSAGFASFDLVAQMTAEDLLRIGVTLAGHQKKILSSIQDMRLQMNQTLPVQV

[18] = target: Death-associated protein kinase 3 (Homo sapiens) (UniProt O43293); experiment: Selectivity interaction (ProQinase) EUB0000171b DAPK3
Death-associated protein kinase 3 (Homo sapiens), sequence (O43293 whole entry, looked up): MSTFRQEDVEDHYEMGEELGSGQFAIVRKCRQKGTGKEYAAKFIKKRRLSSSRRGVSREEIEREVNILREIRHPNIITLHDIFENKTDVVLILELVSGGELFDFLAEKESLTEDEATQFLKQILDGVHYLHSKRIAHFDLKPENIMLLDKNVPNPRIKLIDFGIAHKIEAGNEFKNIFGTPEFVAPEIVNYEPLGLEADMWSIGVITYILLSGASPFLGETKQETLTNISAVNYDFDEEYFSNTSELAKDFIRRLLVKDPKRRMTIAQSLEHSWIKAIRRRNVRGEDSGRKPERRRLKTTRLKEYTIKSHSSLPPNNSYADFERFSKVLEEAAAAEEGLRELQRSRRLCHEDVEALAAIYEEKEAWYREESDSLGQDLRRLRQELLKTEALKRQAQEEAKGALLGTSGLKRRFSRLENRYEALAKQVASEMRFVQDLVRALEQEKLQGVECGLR

[19] = target: Serine/threonine-protein kinase N1 (Homo sapiens, UniProt Q16512); experiment: Selectivity interaction (KinomeScan (DiscoverX)) EUB0001049a PKN1; settings: at 1 µM
Serine/threonine-protein kinase N1, sequence (Q16512 2-942 limits assumed): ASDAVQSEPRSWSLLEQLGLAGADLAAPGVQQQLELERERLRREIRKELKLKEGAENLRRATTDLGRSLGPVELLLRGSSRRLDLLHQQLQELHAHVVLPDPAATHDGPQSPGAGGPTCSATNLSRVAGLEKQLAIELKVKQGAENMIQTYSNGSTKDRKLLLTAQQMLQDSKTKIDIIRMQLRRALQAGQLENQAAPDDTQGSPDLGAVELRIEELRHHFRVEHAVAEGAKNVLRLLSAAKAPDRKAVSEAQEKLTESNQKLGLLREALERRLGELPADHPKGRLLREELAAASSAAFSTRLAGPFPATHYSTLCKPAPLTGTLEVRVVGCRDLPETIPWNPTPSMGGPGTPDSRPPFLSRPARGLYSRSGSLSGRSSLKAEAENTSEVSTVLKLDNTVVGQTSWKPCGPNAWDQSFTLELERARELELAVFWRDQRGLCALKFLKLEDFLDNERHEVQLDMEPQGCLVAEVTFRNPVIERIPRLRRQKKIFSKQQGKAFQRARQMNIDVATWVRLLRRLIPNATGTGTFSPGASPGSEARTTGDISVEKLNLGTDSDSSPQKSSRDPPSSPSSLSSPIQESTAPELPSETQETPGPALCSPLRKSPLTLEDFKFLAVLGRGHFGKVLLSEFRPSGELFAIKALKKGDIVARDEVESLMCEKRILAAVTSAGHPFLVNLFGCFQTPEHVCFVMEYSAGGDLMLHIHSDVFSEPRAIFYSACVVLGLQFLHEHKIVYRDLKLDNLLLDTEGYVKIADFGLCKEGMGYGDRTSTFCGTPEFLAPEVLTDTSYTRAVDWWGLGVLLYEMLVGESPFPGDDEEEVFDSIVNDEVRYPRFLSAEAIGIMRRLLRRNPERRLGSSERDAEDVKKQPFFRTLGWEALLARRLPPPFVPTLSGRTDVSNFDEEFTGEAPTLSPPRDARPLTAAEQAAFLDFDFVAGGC

[20] = target: Atypical kinase COQ8A, mitochondrial (Homo sapiens, UniProt Q8NI60); experiment: Selectivity interaction (KinomeScan (DiscoverX)) EUB0000666a ADCK3; settings: at 10 µM
[21] = target: Mitogen-activated protein kinase 10 (Homo sapiens, UniProt P53779); experiment: Selectivity interaction (KinomeScan (DiscoverX)) EUB0000092b MAPK10; settings: at 10 µM
[22] = target: Cyclin-dependent kinase 7 (Homo sapiens, UniProt P50613); experiment: Selectivity interaction (KinomeScan (DiscoverX)) EUB0000092b CDK7; settings: at 10 µM
[23] = target: Dual specificity testis-specific protein kinase 1 (Homo sapiens) (UniProt Q15569); experiment: Selectivity interaction (KinomeScan (DiscoverX)) EUB0000092b TESK1; settings: at 10 µM
[24] = target: Bone morphogenetic protein receptor type-1B (Homo sapiens, UniProt O00238); experiment: Selectivity interaction (LanthaScreen Eu Kinase Binding Assay) EUB0001632a BMPR1B; settings: at 10 µM

Work on `CCN(CC)CCCCNc1ncc2cc(-c3cc(OC)cc(OC)c3)c(NC(=O)NC(C)(C)C)nc2n1` yielded a % of control [1] of 100%.

Work on `CN(C)C/C=C/C(=O)Nc1ccc(C(=O)N2CCCC(Nc3ncc(Cl)c(-c4c[nH]c5ccccc45)n3)C2)cc1` (centres undefined) yielded a % of control [2] of 68%.

Compound `CN1Cc2nccc(-c3cn(C)nc3-c3ccc(F)cc3)c2C1=O` has a % of inhibition [3] of 2%.

`CN(C)CCOc1ccc(-c2nc(-c3ccncc3)c(-c3ccc4c(c3)CC/C4=N\O)[nH]2)cc1` gave a % of control [4] of 82%.

Work on `Nc1cnc(N2CCc3cc(S(=O)(=O)Nc4c(F)cc(Cl)cc4F)cc(N4CCCC4=O)c32)nc1` [TP-020n] yielded a % of control [5] of 89% and a % of control [6] of 74%.

For `O[C@H]1CC[C@H](Nc2ncc3nc(Nc4c(F)cc(F)cc4F)n([C@H]4CCOC4)c3n2)CC1`, the % of control [7] was 100% and the % of control [8] was 100%.

`CNC(=O)Nc1ccc(-c2nc(N3CC4CCC(C3)O4)c3cnn(C4CCC5(CC4)OCCO5)c3n2)cc1` gave a % of inhibition [9] of 3% and a % of control [10] of 39%.

Compound `C=CC(=O)Nc1cc(-n2c(=O)ccc3cnc4ccc(-c5ccc(NS(C)(=O)=O)cc5)cc4c32)ccc1C` has a % of control [11] of 75%.

Work on `C=CC(=O)Nc1ccc(C(=O)Nc2[nH]nc3c2CN(C(=O)N[C@H](CN(C)C)c2ccccc2)C3(C)C)cc1` yielded a % of engagement [12] of -12.8% and a % of engagement [13] of -0.9%.

Work on `Cc1cc([C@@H](C)Nc2ccccc2C(=O)O)c2nc(N3CCOCC3)cc(=O)n2c1` [AZD-6482] yielded a % of control [14] of 95%.

`CC[C@@H]1[C@H](F)C(=O)N[C@@H]1COc1nccc2cc(C(N)=O)c(OC)cc12` [ZIMLOVISERTIB] was tested, and the % of inhibition ([15]; at 0.01 µM) was -0.6%, the % of inhibition ([15]; at 0.04 µM) was 0.5% and the % of inhibition ([15]; at 0.2 µM) was -0.8%. For the same compound, the % of inhibition ([15]; at 1 µM) was 7.7%, the % of inhibition ([15]; at 5 µM) was 41.7% and the % of inhibition [16] was 43.3%. For the same compound, the % of inhibition [17] was 4.83%.

Compound `C=CC(=O)Nc1cccc(C(=O)Nc2ccc(Nc3cc(-c4[nH]c(SC)nc4C)ccn3)cc2)c1` has a % of control ([18]; at 1 µM) of 88% and a % of control ([18]; at 5 µM) of 88%.

`COc1cc(Nc2nc(C)cc(-c3cnn4nc(OC)ccc34)n2)cc(C(F)(F)F)c1` showed a % of control [19] of 94%.

Work on `O=C(NOC[C@H](O)CO)c1ccc(F)c(F)c1Nc1ccc(I)cc1F` yielded a % of control [20] of 86%.

For `CCC(=O)N1CCN(c2ccc(-n3c(=O)ccc4cnc5ccc(-c6cnc7ccccc7c6)cc5c43)cc2C(F)(F)F)CC1`, the % of control [21] was 31%, the % of control [22] was 57% and the % of control [23] was 58%.

`Cn1cc(-n2cnc3c(NCc4nc5cc(Cl)c(Cl)cc5[nH]4)nc(N4CCOCC4)nc32)cn1` gave a % of inhibition [24] of -57.7%.
